Where two headings read alike, the source gives them in different places. Starred links: 1 amine or outer side, 2 acyl side, 3 side chain; linkers in the order of their positions; H or OH if unused. Non-standard residues stand in square brackets, D forms with d. Residues, ends and D or L forms follow the SMILES beside them. Groups on a side chain read outwards from the residue. No end group written: not given here. *: point of attachment. C20 diacid = O=C(O)CCCCCCCCCCCCCCCCCCC(=O)*; Arachidoyl = CCCCCCCCCCCCCCCCCCCC(=O)*; γGlu = O=C(O)[C@H](CCC(=O)[*:2])N[*:1]; AEEA = NCCOCCOCC(=O)O; Aib = CC(C)(N)C(=O)O
What was measured:
[1] = Stability of compounds in human plasma (LC-MS); type: in vitro ADME
[2] = Blood glucose in normal mice after single subcutaneous administration and intraperitoneal glucose; type: in vivo, C57BL/6 mice; details: for Blood glucose: glucose i.p. 18 h later, mean ± SD
Method: 18 h later, a glucose solution at a concentration of 0.2 g/mL was intraperitoneally injected. Blood glucose values were measured by collecting blood from the tail of mice at time points of 0 min, 15 min, 30 min, 60 min, and 120 min according to the experimental design. The specific procedures were as follows: the mouse was physically immobilized with the tail exposed, a little part was cut off at the tail end, then the tail was squeezed to bleed, and blood glucose was determined using a Roche active glucometer after the 1st drop of blood was discarded. The area under the blood glucose curve (AUC) was calculated from the results of all time points.

[3] = Body weight of diet-induced-obesity mice after subcutaneous administration; type: in vivo, C57BL/6 mice; details: induced-obesity mice, 10 nmol/kg
Method: High-fat food-induced-obesity male C57BL/6 mice (weighing 35-55 g, aged 10-12 weeks, purchased from Shanghai Jiesijie Laboratory Animal Co., Ltd.) were tested. […] According to the experimental design, the body weight of each mouse was measured and recorded on day 0, day 3, day 6, and so on to day 27, the average body weight of each group of mice was calculated, and body weight change curves were plotted by taking the body weight on the first day as the standard. At the end, the fat and other visceral organs of each part of the mice were taken out and weighed, and the viscera/brain ratio for fat in each part of each mouse was calculated. The effect of the drug on the fat was determined by comparing the change in the viscera/brain ratio for fat of different parts of each group of mice.

[4] = molecular target: human glucose-dependent insulinotropic polypeptide receptor (GIPR) (human) (UniProt P48546); assay: cell-based or functional assay
[5] = molecular target: T1, human glucagon-like peptide-1 receptor (GLP-1R) (human, UniProt P43220 24-463); assay: cell-based or functional assay
[6] = molecular target: T2, human glucose-dependent insulinotropic polypeptide receptor (GIPR) (human, UniProt P48546 22-466); assay: cell-based or functional assay
T2 sequence (looked up): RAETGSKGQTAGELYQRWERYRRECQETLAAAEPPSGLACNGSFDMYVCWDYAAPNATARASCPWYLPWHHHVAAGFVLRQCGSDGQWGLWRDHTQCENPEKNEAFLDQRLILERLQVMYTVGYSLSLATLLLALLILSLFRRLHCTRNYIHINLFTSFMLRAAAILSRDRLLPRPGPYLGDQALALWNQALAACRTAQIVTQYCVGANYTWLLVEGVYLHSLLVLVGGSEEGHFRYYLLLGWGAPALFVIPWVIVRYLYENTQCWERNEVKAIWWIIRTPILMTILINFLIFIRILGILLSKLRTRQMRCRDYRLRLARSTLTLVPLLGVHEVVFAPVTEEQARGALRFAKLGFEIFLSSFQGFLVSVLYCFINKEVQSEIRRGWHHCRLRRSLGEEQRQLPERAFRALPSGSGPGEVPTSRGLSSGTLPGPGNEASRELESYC

[7] = molecular target: T1, human glucagon-like peptide-1 receptor …; assay: cell-based or functional assay; remark: listed apart in the source
[8] = molecular target: T2, human glucose-dependent insulinotropic …; assay: cell-based or functional assay; remark: listed apart in the source

With `CC[C@H](C)[C@H](NC(=O)[C@H](CCCCN)NC(=O)[C@H](CC(=O)O)NC(=O)[C@H](CCCCNC(=O)COCCOCCNC(=O)COCCOCCNC(=O)CC[C@H](NC(=O)CCCCCCCCCCCCCCCCCCC(=O)O)C(=O)O)NC(=O)[C@H](Cc1ccc(O)cc1)NC(=O)[C@@H](NC(=O)[C@H](CO)NC(=O)[C@H](Cc1ccc(O)cc1)NC(=O)[C@H](CC(=O)O)NC(=O)[C@H](CO)NC(=O)[C@@H](NC(=O)[C@H](Cc1ccccc1)NC(=O)[C@@H](NC(=O)CNC(=O)[C@H](CCC(=O)O)NC(=O)C(C)(C)NC(=O)[C@@H](N)Cc1ccc(O)cc1)[C@@H](C)O)[C@@H](C)O)[C@@H](C)CC)C(=O)N[C@@H](C)C(=O)N[C@@H](C)C(=O)N[C@@H](CCC(N)=O)C(=O)N[C@@H](CCC(=O)O)C(=O)N[C@@H](Cc1ccccc1)C(=O)N[C@H](C(=O)N[C@@H](CC(N)=O)C(=O)N[C@@H](Cc1c[nH]c2ccccc12)C(=O)N[C@@H](CC(C)C)C(=O)N[C@@H](CC(C)C)C(=O)N[C@@H](C)C(=O)NCC(=O)NCC(=O)N1CCC[C@H]1C(=O)N[C@@H](CO)C(=O)N[C@@H](CO)C(=O)NCC(=O)N[C@@H](C)C(=O)N1CCC[C@H]1C(=O)N1CCC[C@H]1C(=O)N1CCC[C@H]1C(=O)N[C@@H](CO)C(N)=O)C(C)C` [Compound 7#] (H-Y[Aib]EGTFTSDYSIYK([AEEA-AEEA-γGlu-C20 diacid])DKIAAQEFVNWLLAGGPSSGAPPPS-NH2) the “Relative content of compounds retained in plasma” value ([1]; 0 min) was 100.00%, the “Relative content of compounds retained in plasma” value ([1]; 240 min) was 102.15% and the “area under the blood glucose curve reduced compared with placebo” value ([2]; 10 nmol/kg) was “more than 60%”. For the same molecule, the “AUC (area under the blood glucose curve)” value ([2]; 10 nmol/kg s.c., 0-120 min) was 10.7 ± 1.8 mmol·h/L, the Blood glucose ([2]; 10 nmol/kg s.c., 0 min) was 4.4 ± 0.8 mmol/L and the Blood glucose ([2]; 10 nmol/kg s.c., 15 min) was 6.7 ± 0.8 mmol/L. It also gave a Blood glucose ([2]; 10 nmol/kg s.c., 30 min) of 6.2 ± 1.3 mmol/L, a Blood glucose ([2]; 10 nmol/kg s.c., 60 min) of 5.7 ± 1.2 mmol/L and a Blood glucose ([2]; 10 nmol/kg s.c., 120 min) of 3.8 ± 1.1 mmol/L. The Body weight change ([3]; Day 1, mean ± SD) was 0%, the Body weight change ([3]; Day 4, mean ± SD) was −11.0 ± 1.0% and the Body weight change ([3]; Day 7, mean ± SD) was −17.6 ± 2.6%. It also gave a Body weight change ([3]; Day 10, mean ± SD) of −22.6 ± 5.9%, a Body weight change ([3]; Day 13, mean ± SD) of −22.3 ± 6.3% and a Body weight change ([3]; Day 16, mean ± SD) of −22.7 ± 6.9%. The Body weight change ([3]; Day 19, mean ± SD) was −25.9 ± 6.2%, the Body weight change ([3]; Day 22, mean ± SD) was −23.9 ± 5.6% and the Body weight change ([3]; Day 25, mean ± SD) was −23.9 ± 5.6%. For the same molecule, the Body weight change ([3]; Day 28, mean ± SD) was −25.5 ± 5.3%.

“Natural GIP (from UniProt P09681 52-93) (ligand)” gave an Activity against human GIPR (EC50 nM); cAMP HTRF, CHO-K1 cells overexpressing hGIP receptor [4] of 0.006 nM.

With Semaglutide (peptide) the Activity against human GIPR (EC50 nM); cAMP HTRF, CHO-K1 cells overexpressing hGIP receptor [4] was > 10 nM.

In the case of Y[Aib]EGTFTSDYSIYK([AEEA-AEEA-γGlu-Arachidoyl])DKIAAQEFVNWLLAGGPSSGAPPPS-NH2 [compound 7#], the “Activity against human GLP-1R (EC50 nM); cAMP HTRF, CHO-K1/GLP-1R/CRE-luc cells” value (shortened to “Activity against human GLP-1R (EC50 nM)”) [5] is reported as 0.021 nM and the “Activity against human GIPR (EC50 nM); cAMP HTRF, CHO-K1 cells overexpressing hGIP receptor” value (“Activity against human GIPR (EC50 nM)” for short) [6] is reported as 0.11 nM.

B1: compound 16# (peptide)
peptide: Y[Aib]EGTFTSDYSIYK([AEEA-AEEA-γGlu-Arachidoyl])EKIAAQEFINWLLAGGPSSGAPPPS-NH2
modifications: N-terminus assumed
SMILES: CCCCCCCCCCCCCCCCCCCC(=O)N[C@@H](CCC(=O)NCCOCCOCC(=O)NCCOCCOCC(=O)NCCCC[C@H](NC(=O)[C@H](Cc1ccc(O)cc1)NC(=O)[C@@H](NC(=O)[C@H](CO)NC(=O)[C@H](Cc1ccc(O)cc1)NC(=O)[C@H](CC(=O)O)NC(=O)[C@H](CO)NC(=O)[C@@H](NC(=O)[C@H](Cc1ccccc1)NC(=O)[C@@H](NC(=O)CNC(=O)[C@H](CCC(=O)O)NC(=O)C(C)(C)NC(=O)[C@@H](N)Cc1ccc(O)cc1)[C@@H](C)O)[C@@H](C)O)[C@@H](C)CC)C(=O)N[C@@H](CCC(=O)O)C(=O)N[C@@H](CCCCN)C(=O)N[C@H](C(=O)N[C@@H](C)C(=O)N[C@@H](C)C(=O)N[C@@H](CCC(N)=O)C(=O)N[C@@H](CCC(=O)O)C(=O)N[C@@H](Cc1ccccc1)C(=O)N[C@H](C(=O)N[C@@H](CC(N)=O)C(=O)N[C@@H](Cc1c[nH]c2ccccc12)C(=O)N[C@@H](CC(C)C)C(=O)N[C@@H](CC(C)C)C(=O)N[C@@H](C)C(=O)NCC(=O)NCC(=O)N1CCC[C@H]1C(=O)N[C@@H](CO)C(=O)N[C@@H](CO)C(=O)NCC(=O)N[C@@H](C)C(=O)N1CCC[C@H]1C(=O)N1CCC[C@H]1C(=O)N1CCC[C@H]1C(=O)N[C@@H](CO)C(N)=O)[C@@H](C)CC)[C@@H](C)CC)C(=O)O
In the case of B1, the “Activity against human GLP-1R (EC50 nM)” value [7] is reported as 0.029 nM and the “Activity against human GIPR (EC50 nM)” value [8] is reported as 0.095 nM.

B2: compound 17# (peptide)
peptide: Y[Aib]EGTFTSDYSIYK([AEEA-AEEA-γGlu-Arachidoyl])ERIAAQEFVNWLLAGGPSSGAPPPS-NH2
modifications: N-terminus assumed
SMILES: CCCCCCCCCCCCCCCCCCCC(=O)N[C@@H](CCC(=O)NCCOCCOCC(=O)NCCOCCOCC(=O)NCCCC[C@H](NC(=O)[C@H](Cc1ccc(O)cc1)NC(=O)[C@@H](NC(=O)[C@H](CO)NC(=O)[C@H](Cc1ccc(O)cc1)NC(=O)[C@H](CC(=O)O)NC(=O)[C@H](CO)NC(=O)[C@@H](NC(=O)[C@H](Cc1ccccc1)NC(=O)[C@@H](NC(=O)CNC(=O)[C@H](CCC(=O)O)NC(=O)C(C)(C)NC(=O)[C@@H](N)Cc1ccc(O)cc1)[C@@H](C)O)[C@@H](C)O)[C@@H](C)CC)C(=O)N[C@@H](CCC(=O)O)C(=O)N[C@@H](CCCNC(=N)N)C(=O)N[C@H](C(=O)N[C@@H](C)C(=O)N[C@@H](C)C(=O)N[C@@H](CCC(N)=O)C(=O)N[C@@H](CCC(=O)O)C(=O)N[C@@H](Cc1ccccc1)C(=O)N[C@H](C(=O)N[C@@H](CC(N)=O)C(=O)N[C@@H](Cc1c[nH]c2ccccc12)C(=O)N[C@@H](CC(C)C)C(=O)N[C@@H](CC(C)C)C(=O)N[C@@H](C)C(=O)NCC(=O)NCC(=O)N1CCC[C@H]1C(=O)N[C@@H](CO)C(=O)N[C@@H](CO)C(=O)NCC(=O)N[C@@H](C)C(=O)N1CCC[C@H]1C(=O)N1CCC[C@H]1C(=O)N1CCC[C@H]1C(=O)N[C@@H](CO)C(N)=O)C(C)C)[C@@H](C)CC)C(=O)O
With B2 the “Activity against human GLP-1R (EC50 nM)” value [7] was 0.022 nM and the “Activity against human GIPR (EC50 nM)” value [8] was 0.11 nM.

With Y[Aib]EGTFTSDYSIYK([AEEA-AEEA-γGlu-Arachidoyl])EKIAAQEFVNWLLAGGPSSGAPPPS-NH2 [compound 18#] the “Activity against human GLP-1R (EC50 nM)” value [7] was 0.013 nM and the “Activity against human GIPR (EC50 nM)” value [8] was 0.06 nM.

— patent US20260014232A1, “Pharmaceutical Composition of GLP-1 and GIP Receptor Dual Agonist and Use Thereof” (Jiangsu Hengrui Pharmaceuticals Co., Ltd., priority 2021, published 2026)
